What was measured:
[1] = test system: KU1919-GemCis and KU1919 parental cells; test: Drug dose response with NPEPPS knockdown or overexpression; type: cell-based, human
TCCSUP cells = test: Intracellular cisplatin measurements using CyTOF in TCCSUP cells; type: cell-based, human
Description: To validate the role of LRRC8D in cisplatin import, intracellular cisplatin was measured in the TCCSUP cells. […] In contrast to the KU1919, 5637, and T24 cells (FIGS. 12C-12E), NPEPPS knockdown had very little effect on the GemCis-resistant cells (median Pt 195=28) (FIGS. 12I-12J) given that the TCCSUP-GemCis cells have a focal deletion of LRRC8D (FIGS. 9A-9B). However, when LRRC8D was overexpressed, cisplatin import was restored to the levels of the parental cell line (FIG. 12K).
shRNA-mediated knockdown experiments. Lentiviral production and transduction were carried out as follows. In brief, plasmids from the RNAi Consortium (TRC) collection (TRC construct numbers TRCN0000073838, TRCN0000073839 and TRCN0000073840) were used for targeting NPEPPS were selected based on predicted knockdown efficiency; non-targeting controls used were SHC002 and SHC016. 2 μg of target shRNA construct and 2 μg of 3:1 ratio of psPAX2 (Addgene) and pMD2.G (Addgene) were transfected into HEK293FT cells using 2 μg of Polyethylenimine (Polysciences). Lentiviral particles containing media was filtered using 0.45 μm cellulose acetate syringe filter and used for transduction. Puromycin selection was performed at doses used for CRISPR library screening or in some cases, cells were re-selected with higher doses of puromycin (10 μg/mL), in order to ensure complete elimination of non-transduced cells. Selected cells were frozen at early passage and early passage cells were used for all experiments.
Intracellular cisplatin measurements using CyTOF. Cell lines were cultured for several passages in IMDM+10% FBS. […] After dissociation, cells were counted by Trypan blue staining and then placed in separate tubes at 3×10^5 cells. […] Relative cisplatin intensity (defined by ^195Platinum isotopic mass intensity) was analyzed among nucleated ^191Iridium+^193Iridium+events defined by Boolean gating within FlowJo 10.7.1.

**Q.** How did the “effect of NPEPPS knockdown on drug response” value ([1]; KU1919-GemCis cells, stable NPEPPS shRNA knockdown) turn out when `N.N.[Cl][Pt][Cl]` [cisplatin] was run?
**A.** The value was “preferentially enhanced response”.

**Q.** What about the “effect of NPEPPS overexpression on drug response” value ([1]; KU1919 parental lines overexpressing NPEPPS) of the same compound?
**A.** Its value is “increased treatment resistance”.

**Q.** And the “intracellular cisplatin, median Pt 195” value (TCCSUP cells; TCCSUP parental cells)?
**A.** The value was 189.

**Q.** And the “intracellular cisplatin, median Pt 195” value (TCCSUP cells; TCCSUP-GemCis cells)?
**A.** Its value is 22.

**Q.** What about the “intracellular cisplatin, median Pt 195” value (TCCSUP cells; TCCSUP-GemCis cells, NPEPPS knockdown) of the same compound?
**A.** Its value is 28.

— US20240050392A1, “COMPOSITIONS AND METHODS FOR IMPROVED TREATMENT OF PLATINUM-BASED CHEMOTHERAPEUTIC RESISTANT TUMORS” (THE REGENTS OF THE UNIVERSITY OF THE COLORADO, A BODY …, priority 2021, published 2024)
